For series [1] the following is noted: human absorption data, from Ertl et al., J. Med. Chem. 2000; cited from earlier work.
In a further series the target is T1, rat NaP2b (SLC34A2) (Rattus norvegicus, UniProt Q9JJ09).
T1 construct: host or cells: HEK293
T1 sequence (Q9JJ09 1-695): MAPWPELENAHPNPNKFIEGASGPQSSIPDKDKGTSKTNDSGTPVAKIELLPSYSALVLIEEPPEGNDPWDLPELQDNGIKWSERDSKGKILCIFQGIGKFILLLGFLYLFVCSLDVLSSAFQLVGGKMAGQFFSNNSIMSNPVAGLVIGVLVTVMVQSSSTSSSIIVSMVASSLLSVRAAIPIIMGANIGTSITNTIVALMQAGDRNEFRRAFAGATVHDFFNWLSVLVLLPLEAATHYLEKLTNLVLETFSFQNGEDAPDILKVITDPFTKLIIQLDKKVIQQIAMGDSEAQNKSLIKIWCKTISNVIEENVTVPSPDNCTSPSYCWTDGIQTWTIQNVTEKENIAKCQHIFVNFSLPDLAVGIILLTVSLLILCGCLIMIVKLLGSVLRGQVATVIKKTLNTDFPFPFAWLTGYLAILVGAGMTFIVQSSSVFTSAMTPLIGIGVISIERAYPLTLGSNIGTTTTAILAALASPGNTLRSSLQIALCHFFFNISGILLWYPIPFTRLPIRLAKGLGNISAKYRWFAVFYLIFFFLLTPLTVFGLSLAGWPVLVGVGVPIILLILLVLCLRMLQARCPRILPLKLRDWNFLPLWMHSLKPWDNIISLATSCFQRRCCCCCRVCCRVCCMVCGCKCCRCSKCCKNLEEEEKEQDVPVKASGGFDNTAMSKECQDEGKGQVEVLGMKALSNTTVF
Description: NaP2b-mediated Pi transport: 33P phosphate uptake into transfected HEK293 cells. The settings on record: 100 uM KH2PO4, PiT-silencing agent, read-out: pIC50 range for rat Nap2b (converted). Type of series: cell-based. How it is done:
Materials. HEK293 cells were obtained from the American Type Culture collection and propagated per their instructions. Expression clones for rat and human NaP2b (SLC34A2) were obtained from Open Biosystems (Catalog numbers MRN1768-9510282, and MHS1010-99823026, respectively). The sequence of the human protein was mutated to insert a threonine after residue 37, and to introduce a N39D mutation.
Inhibition of Pi Transport. The rate of phosphate (Pi) uptake into HEK293 cells was measured using a modification of the method described by Mohrmann et al. (Mohrmann, I., Mohrmann, M., Biber, J., and Murer, H. (1986) Am. J. Phys. 250(3 Pt 1):G323-30.) Transfected HEK293 cells were treated with a pharmacological agent to minimize endogenous PiT-mediated phosphate transport activity, such that the only remaining sodium-dependent phosphate transport activity is that which was bestowed by introduction of the NaP2b genes.
Cells were seeded into 96-well plates at 25,000 cells/well and cultured overnight. Lipofectamine 2000 (Invitrogen) was used to introduce the NaP2b cDNA, and the cells were allowed to approach confluence during a second overnight incubation. […] Cells were then overlayed with either choline uptake buffer or sodium uptake buffer (14 mM Tris, 137 mM sodium chloride, 5.4 mM KCl, 2.8 mM CaCl2, 1.2 mM MgSO4, 100 uM KH2PO4, PiT-silencing agent, 1 mg/mL Bovine Serum Albumin, pH 7.4) containing 6-9 uCi/mL ^33P orthophosphoric acid (Perkin Elmer) and test compound. Each compound was tested at twelve concentrations ranging from 0.1 nM to 30 uM. Assays were run in duplicate.
After incubation for 3-30 minutes at room temperature, assay mixtures were removed, and the cells were washed twice with ice cold stop solution (137 mM sodium chloride, 14 mM Tris, pH 7.4). Cells were lysed by addition of 20 μL 0.1% Tween 80 followed by 100 μL scintillation fluid, and counted using a TopCount (Perkin Elmer).
pIC50 (the negative log of the IC50) values of the test compounds were calculated using GraphPad Prism.

Data on 26 molecules can be found in patent US9289430B2, “Compounds and methods for inhibiting phosphate transport” (Ardelyx, Inc., priority 2010, dated 2016).

With `CC(C)NCC(O)COc1cccc2[nH]ccc12` (centres unmarked) [pindolol], the “% FA” value in series [1] was 92%.
In the case of `Cc1ccccc1N1C(=O)c2cc(S(N)(=O)=O)c(Cl)cc2NC1C` (centres unmarked) [metolazone], the “% FA” value in series [1] is 64%.
Take `Cc1ccc(-n2ccc(NC(=O)c3cc(N4CCCCC4)ccc3NC(=O)c3cccc(CSCCC(=O)O)c3)n2)cc1C` [Example 5, 3-((3-((2-((1-(3,4-Dimethylphenyl)-1H-pyrazol-3-yl)carbamoyl)-4-(piperidin-1-yl)phenyl)carbamoyl)benzyl)thio)propanoic acid]: at rat NaP2b (SLC34A2), the IC50 was 1 to 7.94 µM.
Same read-out and setting: the result for `CCN(CC)CCN(C)Cc1cccc(C(=O)Nc2ccc(N3CCCCC3)cc2C(=O)Nc2ccn(-c3cccc(C(F)(F)F)c3)n2)c1` [Example 12, 2-(3-(((2-(Diethylamino)ethyl)(methyl)amino)methyl)benzamido)-5-(piperidin-1-yl)-N-(1-(3-(trifluoromethyl)phenyl)-1H-pyrazol-3-yl)benzamide] reads 10 to 31.6 µM.
Take `OC[C@@H](O)[C@@H](O)[C@H](O)[C@H](O)CO` [mannitol]: the “% FA” value in series [1] is 26%.
Consider `O=C(NCCOCCO)c1cccc(C(=O)Nc2ccc(N3CCCCC3)cc2C(=O)Nc2ccn(-c3cccc(C(F)(F)F)c3)n2)c1` [Example 13, N1-(2-(2-Hydroxyethoxyl)ethyl)-N3-(4-(piperidin-1-yl)-2-((1-(3-(trifluoromethyl)phenyl)-1H-pyrazol-3-yl)carbamoyl)phenyl)isophthalamide], for which the IC50 on rat NaP2b (SLC34A2) was 1 to 7.94 µM.
On the same count and under the same terms, the result for `O=C(O)c1ccc(SCc2cccc(C(=O)Nc3ccc(N4CCCCC4)cc3C(=O)Nc3ccn(-c4cccc(C(F)(F)F)c4)n3)c2)cc1` [Example 21, 4-((3-((4-(piperidin-1-yl)-2-((1-(3-(trifluoromethyl)phenyl)-1H-pyrazol-3-yl)carbamoyl)phenyl)carbamoyl)benzyl)thio)benzoic acid] reads 1 to 7.94 µM.
Still for that read-out and setting: then `O=C(NCCOCCO)c1cccc(C(=O)Nc2ccc(N3CCCCC3)cc2C(=O)Nc2cn(-c3cccc(C(F)(F)F)c3)cn2)c1` [Example 10, N1-(2-(2-Hydroxyethoxyl)ethyl)-N3-(4-(piperidin-1-yl)-2-((1-(3-(trifluoromethyl)phenyl)-1H-imidazol-4-yl)carbamoyl)phenyl)isophthalamide], with 1 to 7.94 µM.
The same measure, in the same setting: then `CN(CCN1CCOCC1)C(=O)c1cccc(C(=O)Nc2ccc(N3CCCCC3)cc2C(=O)Nc2nc(-c3cccc(C(F)(F)F)c3)cs2)c1` [Example 3, N1-Methyl-N1-(2-morpholinoethyl)-N3-(4-(piperidin-1-yl)-2-((4-(3-(trifluoromethyl)phenyl)thiazol-2-yl)carbamoyl)phenyl)isophthalamide], with below 1 µM; and `Cc1ccc(-n2ccc(NC(=O)c3cc(Cl)ccc3NC(=O)c3cccc(CSCCC(=O)O)c3)n2)cc1C` [Example 4, 3-((3-((4-Chloro-2-((1-(3,4-dimethylphenyl)-1H-pyrazol-3-yl)carbamoyl)phenyl)carbamoyl)benzyl)thio)propanoic acid], with 1 to 7.94 µM; and `O=C(O)CCSCc1cccc(C(=O)Nc2ccc(Cl)cc2C(=O)Nc2ccn(-c3cccc(C(F)(F)F)c3)n2)c1` [Example 6, 3-((3-((4-Chloro-2-((1-(3-(trifluoromethyl)phenyl)-1H-pyrazol-3-yl)carbamoyl)phenyl)carbamoyl)benzyl)thio)propanoic acid], with 1 to 7.94 µM.
Consider `O=C(O)Cc1cccc(SCc2cccc(C(=O)Nc3ccc(Cl)cc3C(=O)Nc3ccn(-c4cccc(C(F)(F)F)c4)n3)c2)c1` [Example 24, 2-(3-((3-((4-chloro-2-((1-(3-(trifluoromethyl)phenyl)-1H-pyrazol-3-yl)-carbamoyl)phenyl)carbamoyl)benzyl)thio)phenyl)acetic acid], for which the IC50 on rat NaP2b (SLC34A2) was below 1 µM.
Take `CCN1CCCC1CNC(=O)c1cc(S(N)(=O)=O)ccc1OC` (centres unmarked) [sulpiride]: in series [1], the “% FA” value was 36%.
On to `OC[C@H]1O[C@H](OC[C@H]2O[C@H](O[C@]3(CO)O[C@H](CO)[C@@H](O)[C@@H]3O)[C@H](O)[C@@H](O)[C@@H]2O)[C@H](O)[C@@H](O)[C@H]1O` [raffinose], for which the “% FA” value in series [1] was 0.3%.
With `CN(CCOCCOCCOCCC(=O)O)Cc1cccc(C(=O)Nc2ccc(N3CCCCC3)cc2C(=O)Nc2ccn(-c3cccc(C(F)(F)F)c3)n2)n1` [Example 8, 2-methyl-1-(6-((4-(piperidin-1-yl)-2-((1-(3-(trifluoromethyl)phenyl)-1H-pyrazol-3-yl)carbamoyl)phenyl)carbamoyl)pyridin-2-yl)-5,8,11-trioxa-2-azatetradecan-14-oic acid], the IC50 at rat NaP2b (SLC34A2) is 1 to 7.94 µM.
For `CCN(CC)CCN(C)Cc1ccc(C(=O)Nc2ccc(N3CCCCC3)cc2C(=O)Nc2ccn(-c3cccc(C(F)(F)F)c3)n2)cc1` [Example 9, 2-(4-(((2-(diethylamino)ethyl)(methyl)amino)methyl)benzamido)-5-(piperidin-1-yl)-N-(1-(3-(trifluoromethyl)phenyl)-1H-pyrazol-3-yl)benzamide], the IC50 on rat NaP2b (SLC34A2) is 10 to 31.6 µM.
`O=C(O)c1cc(/N=N/c2ccc(O)c(C(=O)O)c2)ccc1O` [olsalazine]: the “% FA” value in series [1] is reported as 2.3%.
For `O=C(O)P(=O)(O)O` [foscarnet], the “% FA” value in series [1] is 17%.
Regarding `C=CCc1ccccc1OCC(O)CNC(C)C` (centres unmarked) [alprenolol], in series [1], the “% FA” value is recorded as 96%.
Consider `CN(CCN1CCOCC1)C(=O)c1cccc(C(=O)Nc2ccc(N3CCCCC3)cc2C(=O)Nc2ncn(-c3cccc(C(F)(F)F)c3)n2)c1` [Example 2, N1-Methyl-N1-(2-morpholinoethyl)-N3-(4-(piperidin-1-yl)-2-((1-(3-(trifluoromethyl)phenyl)-1H-1,2,4-triazol-3-yl)carbamoyl)phenyl)isophthalamide], for which the IC50 on rat NaP2b (SLC34A2) is 1 to 7.94 µM.
Consider `OC[C@H]1O[C@@H](O[C@@H]2[C@@H](CO)OC(O)(CO)[C@H]2O)[C@H](O)[C@@H](O)[C@H]1O` (mixture of isomers) [lactulose], for which the “% FA” value in series [1] was 0.6%.
Take `NC[C@H]1CC[C@H](C(=O)O)CC1` [tranexamic acid]: in series [1], the “% FA” value is on record as 55%.
In the case of `COCCNC(=O)CCN(C)Cc1cccc(C(=O)Nc2ccc(N3CCCCC3)cc2C(=O)Nc2ccn(-c3cccc(C(F)(F)F)c3)n2)c1` [Example 16, 2-(3-(((3-((2-methoxyethyl)amino)-3-oxopropyl)(methyl)amino)methyl)-benzamido)-5-(piperidin-1-yl)-N-(1-(3-(trifluoromethyl)phenyl)-1H-pyrazol-3-yl)-benzamide], the IC50 at rat NaP2b (SLC34A2) was 1 to 7.94 µM.
Take `O=C(O)c1cc(/N=N/c2ccc(S(=O)(=O)Nc3ccccn3)cc2)ccc1O` [sulfasalazine]: in series [1], the “% FA” value is 12%.
For `CC(=O)Nc1ccc(OCC(O)CNC(C)C)cc1` (centres unmarked) [practolol], the “% FA” value in series [1] is given as 95%.
Take `C=CCOc1ccccc1OCC(O)CNC(C)C` (centres unmarked) [oxprenolol]: the “% FA” value in series [1] is recorded as 97%.
